Source: patent publication US4551547A, “Biocidal 2-aryl-1, 3-cyclopentanedione enol ester compounds” (Union Carbide Corporation, priority 1983, dated 1985)

Key:
[1] = test system: two-spotted mite (adults and nymphal stages); experiment: Mite Foliage Spray Test (adults and nymphs); type: in vivo, Tetranychus urticae (Koch); set-up: key to Miticidal, Adult: A: Excellent Control; B: Partial Control; No Control; details: Table II; mortality count after four days
Experimental: Suspensions of the test compounds were prepared by dissolving one gram of compound in 50 milliliters of acetone in which had been dissolved 0.1 gram (10 percent of the weight of compound) of an alkylphenoxyethanol sufactant, as an emulsifying or dispersing agent. The resulting solution was mixed into 160 milliliters of water to give roughly 200 milliliters of a suspension containing the compound in finely divided form. The thus prepared stock suspension contained 0.5 percent by weight of compound. The test concentrations employed in the tests described below were obtained by diluting the stock suspension with water. The test procedures were as follows: Adults and nymphal stages of the two-spotted mite (Tetranychus urticae (Koch)), reared on Tender-green beam plants at 80±5° F. and 50±5 percent relative humidity, were the tests organisms. Infested leaves from a stock culture were placed of the primary leaves of two bean plants six to eight inches in height, growing in a two-and-a-half inch clay pot. 150-200 Mites, a sufficient number for testing, transferred from the excised leaves to the fresh plants in a period of twenty-four hours. Following the twenty-four hour transfer period, the excised leaves were removed from the infested plants. The test compounds were formulated by diluting the stock suspension with water to provide suspensions containing the desired amount of test compound per million parts of final formulation. The potted plants (one pot per compound) were placed on a revolving turntable and sprayed with 100-110 milliliters of tests compound formulation by use of a DeVilbis spray gun set at 40 psi, air pressure. This application, which lasted 30 seconds, was sufficient to wet the plants to run-off. As a control, 100-110 milliliters of a water solution containing acetone and emulsifier in the same concentrations as the test compound formulation, but containing no test compound, were also sprayed on infested plants. The sprayed plants were held at 80±5° F. and 50±5 percent relative humidity for four days, after which, a mortality count of motile forms was made on the leaves of the test plants. Any individual which was capable of locomotion upon prodding was considered living. In these tests the pesticidal activity of the compounds against mites and mite eggs was rated as follows: Tests were conducted in accordance with the procedures given at pages 17 to 21 supra. The results are expressed in the same manner as used in Table II, except with respect to miticidal activity. For mite adult and mite egg comparison purposes, results are given in parts per million (ppm) required for a 50 percent kill of mites or eggs, respectively.

Soybean = experiment: Post-emergent herbicidal test, soybean; type: in vivo; set-up: key: 1: no perceptible injury; 2: intermediate degrees of injury; 3: intermediate degrees of injury; 4: intermediate degrees of injury; 5: the plant was dead; details: Table II; 2500 parts per million, after ten days
Experimental: (§1) Suspensions of the test compounds were prepared by dissolving one gram of compound in 50 milliliters of acetone in which had been dissolved 0.1 gram (10 percent of the weight of compound) of an alkylphenoxyethanol sufactant, as an emulsifying or dispersing agent. The resulting solution was mixed into 160 milliliters of water to give roughly 200 milliliters of a suspension containing the compound in finely divided form. The thus prepared stock suspension contained 0.5 percent by weight of compound. The test concentrations employed in the tests described below were obtained by diluting the stock suspension with water. The test procedures were as follows:
(§2) Experiments were also conducted to determine the phytotoxicity of representative compositions with respect to healthy fresh plants. Solutions of the compounds were prepared as described above to provide a concentration of 2500 parts per million of the test compound. The test plants were sprayed in accordance with the procedure described above for the Mite Foliage Spray Test so as to deliver approximately 100 milliliters of test solutions to the leaves of each plant tested. The sprayed plants and controls were set aside for approximately one hour to allow the solutions to dry and were then placed in the greenhouse. After ten days the plants were visually inspected to determine the extent of foliage injury. A rating of 1 indicates no perceptible injury; 5 indicates the plant was dead and ratings of 2, 3 and 4 indicate intermediate degrees of injury based upon the number and extent to which leaves were injured.

Corn = experiment: Post-emergent herbicidal test, corn; type: in vivo; set-up: key: 1: no perceptible injury; 2: intermediate degrees of injury; 3: intermediate degrees of injury; 4: intermediate degrees of injury; 5: the plant was dead; details: Table II; 2500 parts per million, after ten days
Experimental: as §1, §2

Crabgrass = experiment: Preliminary herbicide seed germination test (pre-emergent), crabgrass; type: in vivo, Digitaria sanguinalis; set-up: key: 5: no seedling emerged; 4: few seedlings emerged and/or very severe stunting; 3: moderate reduction in stand and/or moderate stunting.; 2: very slight reduction in stand and/or slight stunting; 1: no injury, seedlings appear no different with respect to stand or growth than untreated controls; details: Table II; ten to twelve days after application
Experimental: as §1
The following seeds were used in this test:
Crabgrass--Digitaria sanguinalis
Two […] mixtures were prepared as follows:
Each of the above mixtures was rolled separately in 5 gallon containers for approximately one-half hour on ball mill to insure uniform mixing of seeds and soil. For each compound four 3-inch pots were filled with soil to within 11/2 inches of top of pots. To two of these pots were added 70 cc. of Mixture I. To the remaining 2 pots were added 70 cc. of Mixture II. The seed-soil mixture was tamped firmly, and the pots were removed to the greenhouse and watered lightly. About 2 hours after planting, 25 milliliters of the test formulation were added to one pot containing Mixture I and one pot containing Mixture II. An equal volume of a water solution containing acetone and an emulsifier in the same concentration as the herbicidal mixture but without the candidate herbicide was also added to each of the soil-seed mixtures. These pots are used as check or control units. The test compounds were formulated by diluting the stock suspension with water to obtain the desired concentration of the compound in parts per million of the final formulation. Each compound was tested at the same concentration. […] Ratings were made according to the following designations: […]

Row | Compound | Miticidal, Adult [1] | Post-emergent Herbicidal, Soybean (Soybean) | Post-emergent Herbicidal, Corn (Corn) | Pre-emergent Herbicidal, Crabgrass (Crabgrass)
1 | CCCCCCCCCCCCCCCC(=O)OC1=C(c2cc(C)ccc2C)C(=O)CC1 [Compound 14] | A | 3 | 1 | 1
2 | CC(=O)OC1=C(c2cc(C)ccc2C)C(=O)C(C)C1 (centres unmarked) [Compound 15] | A | 2 | 3 | 2
3 | Cc1ccc(C)c(C2=C(OC(=O)C(C)C)CC(C)C2=O)c1 (centres unmarked) [Compound 16] | B | 2 | 3 | 1
4 | CCCCC(CC)C(=O)OC1=C(c2cc(C)ccc2C)C(=O)C(C)C1 (centres unmarked) [Compound 17] | A | 3 | 3 | 1
5 | CCCCCCCCCCCCCCCC(=O)OC1=C(c2cc(C)ccc2C)C(=O)C(C)C1 (centres unmarked) [Compound 18] | A | 2 | 3 | 1
6 | CC(=O)OC1=C(c2ccccc2C)C(=O)C2CCCCC12 (centres unmarked) [Compound 19, 3-acetoxy-2-(2'-methylphenyl)-4,5,6,7,8,9-hexahydro-2-indenone] | A | 3 | 5 | 3
7 | Cc1ccccc1C1=C(OC(=O)C(C)C)C2CCCCC2C1=O (centres unmarked) [Compound 20] | A | 3 | 5 | 3
8 | CCCCC(CC)C(=O)OC1=C(c2ccccc2C)C(=O)C2CCCCC12 (centres unmarked) [Compound 21, 3-(2-Ethylhexanoyloxy)-2-(2'-methylphenyl)-4,5,6,7,8,9-hexahydro-2-indenone] | A | 2 | 5 | 2
9 | Cc1ccccc1C1=C(OC(=O)C(C)(C)C)C2CCCCC2C1=O (centres unmarked) [Compound 22] | A | 3 | 5 | 3
10 | CCCCCCCCCC(=O)OC1=C(c2ccccc2C)C(=O)C2CCCCC12 (centres unmarked) [Compound 23] | A | 3 | 5 | 3
11 | CCCCCCCCCCCCCCCC(=O)OC1=C(c2ccccc2C)C(=O)C2CCCCC12 (centres unmarked) [Compound 24] | A | 2 | 2 | 3
12 | CC(=O)OC1=C(c2ccc(C)cc2C)C(=O)C2CCCCC12 (centres unmarked) [Compound 25] | A | 2 | 3 | 5
13 | CCCCC(CC)C(=O)OC1=C(c2ccc(C)cc2C)C(=O)C2CCCCC12 (centres unmarked) [Compound 26, 3-(2-ethylhexanoyloxy)-2-(2',4'-dimethylphenyl)-4,5,6,7,8,9-hexahydro-2-indenone] | A | 2 | 5 | 1
14 | Cc1ccc(C2=C(OC(=O)c3ccccc3)C3CCCCC3C2=O)c(C)c1 (centres unmarked) [Compound 27, 3-benzoyloxy-2-(2',4'-dimethylphenyl)-4,5,6,7,8,9-hexahydro-2-indenone] | A | 2 | 4 | 5
